The subject of assay [1] is Apc^min/+ mice. Description: Intestinal tumorigenesis in Apc^Min/+ mice gavaged with L. gallinarum. As to conditions: male and female Apc^Min/+ mice with CH-223191 treatment. The assay is classed as in vivo. How it is done: […] Apc^Min/+ mice at 5 to 6 weeks old were divided into 3 groups with or without CH-223191 treatment: (1) control; (2) E. coli MG1655; and (3) L. gallinarum. L. gallinarum and E. coli MG1655 were cultured in MRS broth (Difco Laboratories, Detroit, MN) and BHI broth, respectively. After one day, 1.0×10^8 colony-forming units (CFUs) bacteria were collected and resuspended in 100 ul PBS. Mice were gavaged once daily for 8 weeks and body weight and stool were examined weekly.
Mouse colonoscopy (Karl Storz Endoskope, Tuttlingen, Germany) was performed prior to sacrifice. The colonoscope was inserted into the anus and advanced proximally under direct visualization, facilitated by air insufflation, and representative pictures of the colon tumor from each group were recorded. After 8 weeks of gavage, mice were anaesthetized and sacrificed. Small intestines and colons of mice were longitudinally opened and rinsed with PBS. Total number of tumors in small intestine and colon were recorded. Size of each tumor was measured using previous published formula^42. All animal studies were performed in accordance with guidelines approved by the Animal Experimentation Ethics Committee of The Chinese University of Hong Kong.
To investigate the effect of L. gallinarum on colorectal tumorigenesis, Apc^Min/+ mice were first used. […]

The target of assay [2] is T1, aryl hydrocarbon receptor (AhR) (Homo sapiens, UniProt P35869).
T1 construct: endogenous in cells
T1 sequence (P35869 11-848): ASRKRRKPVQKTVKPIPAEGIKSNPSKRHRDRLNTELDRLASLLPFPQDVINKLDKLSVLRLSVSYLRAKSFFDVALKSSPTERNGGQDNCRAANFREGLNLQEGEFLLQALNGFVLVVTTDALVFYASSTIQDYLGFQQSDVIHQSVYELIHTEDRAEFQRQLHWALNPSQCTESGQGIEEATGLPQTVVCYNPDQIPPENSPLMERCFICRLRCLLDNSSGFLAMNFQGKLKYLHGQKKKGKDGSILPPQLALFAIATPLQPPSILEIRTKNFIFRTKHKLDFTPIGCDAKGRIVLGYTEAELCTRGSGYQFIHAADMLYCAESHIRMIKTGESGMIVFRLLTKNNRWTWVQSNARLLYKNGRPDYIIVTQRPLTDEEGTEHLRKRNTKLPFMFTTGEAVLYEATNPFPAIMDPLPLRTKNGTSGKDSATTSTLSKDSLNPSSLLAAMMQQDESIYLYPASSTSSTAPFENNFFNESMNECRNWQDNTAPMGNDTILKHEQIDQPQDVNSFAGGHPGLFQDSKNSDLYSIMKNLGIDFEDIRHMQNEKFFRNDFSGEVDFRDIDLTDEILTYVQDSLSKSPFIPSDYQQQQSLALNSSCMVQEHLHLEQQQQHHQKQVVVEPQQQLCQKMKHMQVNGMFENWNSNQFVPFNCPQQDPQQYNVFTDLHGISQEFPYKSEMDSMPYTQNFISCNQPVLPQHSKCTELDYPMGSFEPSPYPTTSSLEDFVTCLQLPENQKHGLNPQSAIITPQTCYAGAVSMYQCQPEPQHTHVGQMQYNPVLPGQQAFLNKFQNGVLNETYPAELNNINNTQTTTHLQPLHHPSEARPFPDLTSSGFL
Description: Transcription of AhR after AhR antagonist. The format is cell-based. As to conditions: 100 nM.

In assay [3] the test system is CRC cell lines (HCT116 and LoVo). Description: Cell viability (MTT) assay, CRC cell lines. The assay is classed as cell-based. As for the experimental part: After culturing L. gallinarum or E. coli MG1655 for 1-2 days, the bacterial concentration in each culture medium was measured using NanoDrop spectrophotometer (NanoDrop Technologies, Wilmington, DE). BHI cultures were diluted to ensure equal concentrations of L. gallinarum and E. coli. Culture supernatants were then collected by centrifugation at 5,000 rpm for 10 minutes, followed by sterile filtration with a 0.22-μm membrane. Filtrates were collected and termed as L. gallinarum culture supernatant (LGCS) or E. coli MG1655 culture supernatant (ECCS). Bacterial culture supernatant was separated into low-molecular-weight (LMW) and high-molecular-weight (HMW) using Amicon Ultra-15 Centrifugal Filter Units with a pore size of 3 kilodalton (kDa, Millipore, Bedford, MA). After centrifugation in a swinging bucket rotor at 4,000 g for 30 minutes, cells were cultured in medium containing […] or control broth (LMW, 10%; HMW, 1%). The bacterial supernatants were heated at 100° C. for 30 minutes or treated with proteinase k (50 ug/ml; QIAGEN GmbH, Hilden, Germany). […] Cell proliferation was measured by MTT assay for 5 consecutive days. The amount of MTT formazan product was determined by measuring absorbance at a wavelength of 570 nm (OD570) with a microplate reader (Multiskan GO Microplate Spectrophotometer, Thermo Scientific, Vantaa, Finland). […]

For assay [4], the system named is Apc^min/+ mice. Nature of the assay: Gavage of ILA into Apc^Min/+ mice. The assay is classed as in vivo. As to conditions: gavage 20 mg/kg. As for the experimental part:
Functional investigation of ILA in CRC tumorigenesis was then performed in vivo. […] Moreover, additional experiments were performed to investigate if antagonizing ILA could abrogate L. gallinarum medicated anti-cancer effect. […] Thus, ILA can contribute, at least in part, to the tumor-suppressive effect of L. gallinarum.

Assay [5] concerns CRC cell lines, HCT116 and LoVo. Description: Apoptosis assay (Annexin V-PE / 7-AAD flow cytometry), CRC cell lines. As to conditions: FIG. 18F. The format is cell-based. As for the experimental part:
Cells were plated on 6-well plates 24 hours prior to treatment, and cultured in medium containing 10% […] or control broth. CRC patient-derived organoids were cultured on 6-well plates, and 10% […] or control broth was added to Matrigel and growth medium. After treatment, cells and organoids were digested in 0.25% trypsin-EDTA (Gibco-Invitrogen Corp., Grand Island, NY) and TrypLE, respectively. For apoptosis assay, the proportion of apoptotic cells was evaluated by dual staining with Annexin V-PE and 7-Aminoactinomycin D (7-AAD) (BD Pharmingen, San Jose, CA). Combination of Annexin V-PE and 7-AAD staining distinguished early apoptotic cells (Annexin V+, 7-AAD-) and late apoptotic cells (Annexin V+, 7-AAD+). For cell cycle analysis, cells treated with 10% […] or control broth for 1 day were fixed and stained with 50 μg/ml propidium iodide (PI) (BD Pharmingen). Cell cycle of all stained cells were analyzed using […] cell sorter (BD Biosciences, San Jose, CA).

With `Cc1ccccc1N=Nc1ccc(NC(=O)c2ccnn2C)c(C)c1` [CH-223191], the “effect on CRC suppression by L. gallinarum in Apc^Min/+ mice” value with Apc^min/+ mice [1] is listed as “abolished the effect of L. gallinarum in suppressing CRC”. Further, in assay [2], the “transcription of AhR” value is recorded as “significantly suppressed”. Moreover, the “effect on CRC suppression by L. gallinarum in vitro” value in assay [3] (CRC cells pre-treated with 100 nM for 12 hours before culture supernatant) is given as “abolished the effect of L. gallinarum in suppressing CRC”.

With `O=C(O)C(O)Cc1c[nH]c2ccccc12` (stereo not drawn) [ILA, indole-3-lactic acid], in the assay with Apc^min/+ mice [4], the “cells with positive TUNEL staining, adjacent normal tissues” value is “but not in adjacent normal tissues”; the “cells with positive TUNEL staining, tumor tissues” value is listed as “increased”; the tumor number result is listed as “significantly reduced”; the tumor size entry was “significantly reduced”. For the same molecule, the “cell apoptosis of CRC cells” value in assay [5] is given as “significantly increased”. Moreover, the “cell viability of CRC cells” value in assay [3] (same amount of ILA as produced from L. gallinarum) is on record as “decreased substantially”.
